Tests used:
rat heart tissue = test: GENECALLING differential gene expression analysis after dosing of serotonin modulating agents; assay type: in vivo, Sprague Dawley rats
Experimental: Control animals received sterile water or canola oil. The animals were sacrificed 24 hours following the last dose. Liver tissue was dissected from the animals, and total RNA was recovered from the dissected tissue. cDNA was prepared and the resulting samples were processed through using GENECALLING™ differential expression analysis as described in U.S. Pat. No. 5,871,697 and in Shimkets et al., Nature Biotechnology 17:798-803 (1999). The contents of these patents and publications are incorporated herein by reference in their entirety.
Thousands of gene fragments were initially found to be differentially expressed in rat heart tissue in response to serotonin modulating agents in. Genes fragments whose expression levels were modulated greater than ±1.5-fold were selected for further analysis.
Column 6 of Table 1, entitled “Function”, lists the type of classification assigned for the protein, based on its function. The 210 single nucleic acid sequences identified herein, are referred to herein as CARDIOTOX 1-210.

[1] = grouping used to generate the distinguishing gene profiles; cited from earlier work

CN1C[C@H](C(=O)N[C@]2(C)O[C@@]3(O)[C@@H]4CCCN4C(=O)[C@H](Cc4ccccc4)N3C2=O)C[C@@H]2c3cccc4[nH]cc(c34)C[C@H]21 [dihydroergotamine]
Effects on Transcription Level: Novel gene fragment, 535 bp, 90% SI to mouse slow/cardiac troponin C [M29793] (rat heart tissue; CARDIOTOX 71): −1.7 fold | Effects on Transcription Level: Novel gene fragment, 445 bp, 85% SI to human skeletal muscle alpha 2 actinin [M86406] (rat heart tissue; CARDIOTOX 72): −2.0 fold | Effects on Transcription Level: Novel gene fragment, 246 bp, 89% SI to mouse ponsin-1 [AF078667] (rat heart tissue; CARDIOTOX 73): −3.5 fold | Effects on Transcription Level: Novel gene fragment, 126 bp, 77% SI to human DNA sequence from cosmid V311G7, between markers DXS366 and DXS87 on chromosome X [Z69304] (rat heart tissue; CARDIOTOX 74): +1.8 fold | Effects on Transcription Level: Novel gene fragment, 370 bp (rat heart tissue; CARDIOTOX 75): −2.0 fold | Effects on Transcription Level: Novel gene fragment, 337 bp, 78% SI to novel human protein AHNAK [M80899] (rat heart tissue; CARDIOTOX 76): −4.1 fold | Effects on Transcription Level: Novel gene fragment, 100 bp, 93% SI to human KIAA0750 protein [ABO18293] (rat heart tissue; CARDIOTOX 77): −9.3 fold | Effects on Transcription Level: Novel gene fragment, 44 bp (rat heart tissue; CARDIOTOX 78): −9.0 fold | Effects on Transcription Level: Novel gene fragment, 698 bp, 93% SI to mouse plenty-of-prolines-101 [AF062655] (rat heart tissue; CARDIOTOX 79): −1.9 fold | Effects on Transcription Level: Novel gene fragment, 660 bp, 84% SI to mouse membrane protein TMS-2 [AF181685] (rat heart tissue; CARDIOTOX 80): −3.0 fold | Effects on Transcription Level: Novel gene fragment, 115 bp (rat heart tissue; CARDIOTOX 81): −7.5 fold | Effects on Transcription Level: Novel gene fragment, 294 bp, 95% SI to mouse Ndr1 related protein Ndr2 [AB033921] (rat heart tissue; CARDIOTOX 82): −3.3 fold | Effects on Transcription Level: Novel gene fragment, 198 bp (rat heart tissue; CARDIOTOX 83): +2.6 fold | Effects on Transcription Level: Novel gene fragment, 730 bp, 86% SI to mouse E800 [Y10968] (rat heart tissue; CARDIOTOX 84): −1.7 fold | Effects on Transcription Level: Novel gene fragment, 294 bp, 98% SI to cysteine conjugate beta-lyase [S61960] (rat heart tissue; CARDIOTOX 85): −1.7 fold | Effects on Transcription Level: Aconitase (rat heart tissue; CARDIOTOX 86, GenBank A1243266): −3.2 fold | Effects on Transcription Level: Ribosomal protein L7 (rat heart tissue; CARDIOTOX 87, GenBank M17422): +2.7 fold | Effects on Transcription Level: Ribosomal protein L9 (rat heart tissue; CARDIOTOX 88, GenBank X51706): +5.0 fold | Effects on Transcription Level: Ribosomal protein L12 (rat heart tissue; CARDIOTOX 89, GenBank X53504): −2.0 fold | Effects on Transcription Level: 18S, 5.8S, and 28S ribosomal RNA's (rat heart tissue; CARDIOTOX 90, GenBank V01270): +2.6 fold | Effects on Transcription Level: Pyruvate dehydrogenase kinase 2 (PDK2) (rat heart tissue; CARDIOTOX 91, GenBank U10357): −5.8 fold | Effects on Transcription Level: D-Binding Protein (DBP) (rat heart tissue; CARDIOTOX 92, GenBank J03179): −1.5 fold | Effects on Transcription Level: Lipoprotein lipase (rat heart tissue; CARDIOTOX 93, GenBank L03294): −2.2 fold | Effects on Transcription Level: Non-neuronal enolase (rat heart tissue; CARDIOTOX 94, GenBank X02610): +3.1 fold | Effects on Transcription Level: Glycogen phosphorylase (muscle isozyme) (rat heart tissue; CARDIOTOX 95, GenBank L10669): −2.7 fold | Effects on Transcription Level: Cytochrome c oxidase subunit IV (rat heart tissue; CARDIOTOX 96, GenBank X14209): +4.1 fold | Effects on Transcription Level: Alpha-globin (rat heart tissue; CARDIOTOX 97, GenBank M17083): +3.9 fold | Effects on Transcription Level: Beta-globin (rat heart tissue; CARDIOTOX 98, GenBank X06701): +3.3 fold | Effects on Transcription Level: Myoglobin (rat heart tissue; CARDIOTOX 99, GenBank AF197916): +3.9 fold | Effects on Transcription Level: Titin (rat heart tissue; CARDIOTOX 100, GenBank L38717): −5.4 fold | Effects on Transcription Level: Skeletal muscle actin (rat heart tissue; CARDIOTOX 101, GenBank V01218): −14.3 fold | Effects on Transcription Level: Myosin light chain 2 (MLC2) (rat heart tissue; CARDIOTOX 102, GenBank M11851): −1.5 fold | Effects on Transcription Level: Alpha cardiac myosin heavy chain (rat heart tissue; CARDIOTOX 103, GenBank X15938): −2.5 fold | Effects on Transcription Level: Troponin I (rat heart tissue; CARDIOTOX 104, GenBank U77354): +1.5 fold | Effects on Transcription Level: Cardiac calsequestrin (rat heart tissue; CARDIOTOX 105, GenBank AF001334): −2.1 fold | Effects on Transcription Level: Sulfated glycoprotein 2 (rat heart tissue; CARDIOTOX 106, GenBank M16975): −1.6 fold | Effects on Transcription Level: Aquaporin 7 (rat heart tissue; CARDIOTOX 107, GenBank AB000507): +1.7 fold | Effects on Transcription Level: Carnitine/acylcarnitine carrier protein (rat heart tissue; CARDIOTOX 108, GenBank X97831): −2.8 fold | Effects on Transcription Level: Glu-Pro Dipeptide Repeat (rat heart tissue; CARDIOTOX 109, GenBank U40628): −5.1 fold | Effects on Transcription Level: Cystatin beta (rat heart tissue; CARDIOTOX 110, GenBank X54737): +2.6 fold | Effects on Transcription Level: Novel gene fragment, 593 bp, 90% SI to human calcineurin B-like protein [Z08983] (rat heart tissue; CARDIOTOX 111): +1.7 fold | Effects on Transcription Level: Novel gene fragment, 179 bp, 88% SI to human titin [X90568] (rat heart tissue; CARDIOTOX 112): +6.0 fold | Effects on Transcription Level: Novel gene fragment, 700 bp, 91% SI to mouse periplakin (PPL) [AF116523] (rat heart tissue; CARDIOTOX 113): +1.7 fold | Effects on Transcription Level: Long chain acyl-CoA dehydrogenase (LCAD) (rat heart tissue; CARDIOTOX 114, GenBank J05029): +1.5 fold | Effects on Transcription Level: Sulfated glycoprotein 1 (SGP-1) (rat heart tissue; CARDIOTOX 115, GenBank M19936): −1.7 fold | Effects on Transcription Level: Catalase (rat heart tissue; CARDIOTOX 116, GenBank M11670): +1.6 fold | Effects on Transcription Level: Alpha-fodrin (A2A) (Nonerythroid spectrin alpha subunit) (rat heart tissue; CARDIOTOX 117, GenBank AF084186): −1.5 fold | Effects on Transcription Level: Cardiac specific sodium channel alpha-subunit (rat heart tissue; CARDIOTOX 118, GenBank M27902): −1.6 fold | Effects on Transcription Level: Glu-Pro Dipeptide Repeat (rat heart tissue; CARDIOTOX 119, GenBank U40628): +1.9 fold | Effects on Transcription Level: Novel gene fragment, 200 bp, 64% SI to human KIAA0733 protein [AB018316] (rat heart tissue; CARDIOTOX 120): −1.2 fold | Effects on Transcription Level: RNA polymerase II transcription factor SIII (p18 subunit) (rat heart tissue; CARDIOTOX 121, GenBank L42855): +1.4 fold | Effects on Transcription Level: Protein-tyrosine phosphalase (LRP) (rat heart tissue; CARDIOTOX 122, GenBank L01702): +1.4 fold | Effects on Transcription Level: Skeletal muscle selenoprotein W (SelW) (rat heart tissue; CARDIOTOX 123, GenBank U25264): −1.4 fold | Effects on Transcription Level: Sarcoplasmic reticulum 2+-Ca-ATPase (rat heart tissue; CARDIOTOX 124, GenBank X15635): −1.2 fold | Effects on Transcription Level: Ribosomal protein S7 (rat heart tissue; CARDIOTOX 125, GenBank X53377): +1.7 fold | Effects on Transcription Level: Ribophorin I (rat heart tissue; CARDIOTOX 126, GenBank X05300): +1.5 fold | Effects on Transcription Level: Beta cardiac myosin heavy chain (rat heart tissue; CARDIOTOX 127, GenBank X15939): −1.6 fold | Effects on Transcription Level: ADP-ribosylation factor 1 (rat heart tissue; CARDIOTOX 128, GenBank L12380): +1.3 fold | Effects on Transcription Level: Laminin receptor (rat heart tissue; CARDIOTOX 129, GenBank U04942): +1.1 fold | Effects on Transcription Level: Novel gene fragment, 206 bp, 89% SI to human seryl-tRNA synthetase [X91257] (rat heart tissue; CARDIOTOX 130): +2.0 fold | Effects on Transcription Level: Annexin VI (rat heart tissue; CARDIOTOX 131, GenBank X86086): +3.5 fold | Effects on Transcription Level: Novel gene fragment, 325 bp, 90% SI to mouse N-RAP [U76618] (rat heart tissue; CARDIOTOX 132): +1.4 fold | Effects on Transcription Level: Novel gene fragment, 61 bp (CARDIOTOX 134) (rat heart tissue; LD10 dose for three days): −1.1 fold | Effects on Transcription Level: Novel gene fragment, 337 bp (CARDIOTOX 133) (rat heart tissue; LD10 dose for three days): −1.2 fold | Effects on Transcription Level: Novel gene fragment, 378 bp, 88% SI to human coatomer protein (COPA) [U24105] (CARDIOTOX 138) (rat heart tissue; LD10 dose for three days): +1.2 fold | Effects on Transcription Level: Long chain 3-ketoacyl-CoA thiolase (CARDIOTOX 136) (rat heart tissue; LD10 dose for three days, GenBank D16479): −1.2 fold | Effects on Transcription Level: TATA-binding protein interacting protein 120 (TIP120) (CARDIOTOX 135) (rat heart tissue; LD10 dose for three days, GenBank D87671): +1.1 fold | Effects on Transcription Level: Serine protease (CARDIOTOX 139) (rat heart tissue; LD10 dose for three days, GenBank D88250): +1.2 fold | Effects on Transcription Level: Thymosin beta-4 (CARDIOTOX 137) (rat heart tissue; LD10 dose for three days, GenBank M34043): +1.6 fold | classification as cardiotoxic or noncardiotoxic serotonin modulating agent [1]: cardiotoxic

Reference: patent publication US20040005537A1, “Method of identifying toxic agents using differential gene expression” (priority 2000, published 2004)
